Measurements published in patent US5281626A, “Benzenesulfonamide derivatives” (Eisai Co., Ltd., priority 1990, dated 1994).

Assays:
[1] = tested on: phospholipase A2 (PLA2) contained in the membrane fraction of rabbit heart; experiment: Inhibitory activity against phospholipase A2 (PLA2) contained in the membrane fraction of rabbit heart; type: biochemical; conditions: CaCl2 added, 37° C., 30 minutes
Procedure: (§1) A. Inhibitory activity against phospholipase A2 (PLA2) contained in the membrane fraction of rabbit heart or the supernatant fraction thereof (method) An NZW male rabbit was anesthetized by the intravenous administration of pentobarbital sodium to take out its heart. This heart was washed with ice cooled physiological saline to recover a ventricle, followed by the addition of ice-cooled 0.25M sucrose/20 mM tris hydrochloride buffer (pH: 8.0) in an amount of 5 ml per g of the ventricle. The obtained mixture was mashed with a homogenizer in ice water for 30 minutes and centrifuged at 1,000 g for 10 min. The supernatant was further centrifuged at 105,000 g for 60 min. The centrifugation was conducted at 0° to 4° C. The obtained supernatant was used as such as the supernatant fraction for examination. The precipitate was suspended in the same buffer as that described above and used as the membrane fraction for examination. The protein concentrations of these fractions were each adjusted to 5 mg/ml as determined by Lowry method. […] The test tubes of the membrane fraction were kept at 37° C. for 30 minutes for incubation, while those of the supernatant fraction were kept at 37° C. for 5 minutes for incubation. Each incubation was stopped by the addition of 1 ml of Dole reagent. […] The amount of ^14 C was determined with a liquid scintillation counter. Mepacrine was selected as a comparative compound. (Results)

[2] = tested on: phospholipase A2 (PLA2) contained in the supernatant fraction of rabbit heart; experiment: Inhibitory activity against phospholipase A2 (PLA2) contained in the supernatant fraction of rabbit heart; type: biochemical; conditions: EGTA added, 37° C., 5 minutes
Procedure: as §1

Row | SMILES | PLA2 -inhibitory activity IC30, membrane fraction [1] [µM] | PLA2 -inhibitory activity IC30, supernatant fraction [2] [µM]
1 | CN(C(=O)/C=C/c1ccc(S(C)(=O)=O)cc1)c1ccc(S(=O)(=O)NC2CCCCN(Cc3ccccc3)C2)cc1 (racemic) [Example 9, (±)-[1-benzyl-3-hexamethyleneimino]-4-{N-methyl N-[(E)-N-3-(4-methylsulfonylphenyl)-2-propenoyl]amino)benzenesulfonamide] | 0.015 | 61
2 | CN(C(=O)/C=C/c1ccc(-n2ccnc2)cc1)c1ccc(S(=O)(=O)N[C@@H]2C[C@H]3CC[C@@H]2C3)cc1 (relative stereo) [Example 31, (±)-N-(exo-2-norbornyl)-4-{N-methyl-N-[(E)-3-[4-(1-imidazolyl)phenyl]-2-propenoyl]amino}benzenesulfonamide] | 0.42 | 29
3 | CN(C(=O)/C=C/c1ccc(O)c(O)c1)c1ccc(S(=O)(=O)NC2Cc3ccccc3C2)cc1 [Example 2, N-(2-indanyl)-4-{N-methyl-N-[(E)-3-(3,4-dihydroxyphenyl)-2-propenoyl]amino}benzenesulfonamide] | 4.48 | 40
4 | CN(C(=O)/C=C/c1ccc(OC(=O)CN)c(OC(=O)CN)c1)c1ccc(S(=O)(=O)NC2Cc3ccccc3C2)cc1 [Example 3, N-(2-indanyl)-4-{N-methyl-N-[(E)-3-[3,4-diglycyloxyphenyl)-2-propenoyl]amino}benzenesulfonamide] | 2.4 | –
5 | CN(C(=O)/C=C/c1ccc(S(C)(=O)=O)cc1)c1ccc(S(=O)(=O)NC2CCN(CCc3ccccc3)CC2)cc1 [Example 5, N-[1-(2-phenylethyl)-4-piperidyl]-4-{N-methyl-N-[(E)-3-(4-methylsulfonylphenyl) -2-propenoyl]amino}benzenesulfonamide] | 0.007 | 49
6 | CN(C(=O)/C=C/c1ccc(S(C)(=O)=O)cc1)c1ccc(S(=O)(=O)NC2CCCCCC2)cc1 [Example 14, N-pycloheptyl-4-(N-methyl-N-[(E)-3-(4-methylsulfonylphenyl)-2-propenoyl]amino}benzenesulfonamide] | 0.016 | > 30
7 | CN(C(=O)/C=C/c1ccc(S(C)(=O)=O)cc1)c1ccc(S(=O)(=O)NCCc2ccccn2)cc1 [Example 18, N-[2-(2-pyridyl)ethyl]-4-{N-methyl-N-[(E)-3-(4-methylsulfonylphenyl) -2-propenoyl]amino}benzenesulfonamide] | 0.18 | > 100
8 | CN(C(=O)/C=C/c1ccc(S(C)(=O)=O)cc1)c1ccc(S(=O)(=O)N2CCCN(CC3CCCCC3)CC2)cc1 [Example 20, (E)-N-methyl-N-[4-(4-cyclohexylmethyl-1-homopiperazinyl)sulfonylphenyl]-3 (4 methylsulfonylphenyl)-2-propenamide] | 0.045 | 92
9 | CN(C(=O)/C=C/c1ccc(S(C)(=O)=O)cc1)c1ccc(S(=O)(=O)N2CCCN(Cc3ccccc3)CC2)cc1 [Example 21, (E)-N-methyl-N-[4-(4-benzyl-1-homopiperazinyl)sulfonylphenyl]-3-(4-methylsulfonylphenyl)-2-propenamide] | 0.055 | > 100
10 | CN(C(=O)/C=C/c1ccc(S(C)(=O)=O)cc1)c1ccc(S(=O)(=O)N2CCN(CCc3ccccc3)CC2)cc1 [Example 22, (E)-N methyl-N-{4-[4-(2-phenylethyl)-piperazinyl]sulfonylphenyl}-3-(4-methylsulfonylphenyl)-2-propenamide] | 0.050 | > 100
11 | CN(C(=O)/C=C/c1ccc(C#N)cc1)c1ccc(S(=O)(=O)NC2CCCCCC2)cc1 [Example 25, N-cycloheptyl-4-{N-methyl-N-[(E)-3-(4-cyanophenyl)-2-propenoyl]amino}benzenesulfonamide] | 0.16 | 68
12 | CN(C(=O)/C=C/c1ccc(C#N)cc1)c1ccc(S(=O)(=O)NC2CCN(Cc3ccccc3)CC2)cc1 [Example 26, N-(1-benzyl-4-piperidyl)-4-{N-methyl-N-[(E)-3-(4-cyanophenyl)-2-propenoyl]amino}benzenesulfonamide] | 0.24 | 59
13 | CN(C(=O)/C=C/c1ccc(-n2ccnc2)cc1)c1ccc(S(=O)(=O)NC2CCCCCC2)cc1 [Example 29] | 0.45 | 90
14 | CN(C(=O)/C=C/c1ccc(-n2ccnc2)cc1)c1ccc(S(=O)(=O)NC2CCCCCCC2)cc1 [Example 30, N-cyclooctyl-4-{N-methyl-N-[(E)-3-[4-(1-imidazolyl)phenyl]-2-propenoyl]amino}benzenesulfonamide] | 0.66 | > 100
15 | CN(C(=O)/C=C/c1ccc([N+](=O)[O-])cc1)c1ccc(S(=O)(=O)NC2CCCCCC2)cc1 [Example 38, N-cycloheptyl-4-{N-methyl-N-[(E)-3-(4-nitrophenyl)-2-propenoyl]amino}benzenesulfonamide] | 0.12 | 29
16 | CN(C(=O)/C=C/c1ccc(O)cc1)c1ccc(S(=O)(=O)NC2Cc3ccccc3C2)cc1 [Example 41, N-(2-indanyl)-4-{N-methyl-N-[(E)-3-(4-dihydroxyphenyl)-2-propenoyl]amino}benzenesulfonamide] | 0.98 | 46
17 | CN(C(=O)/C=C/c1ccc(O)c(F)c1)c1ccc(S(=O)(=O)NC2CCCCCC2)cc1 [Example 43] | 3.49 | 62
18 | CN(C(=O)/C=C/c1ccc(O)c(O)c1)c1ccc(S(N)(=O)=O)cc1 [Example 65, 4-{N-methyl-N-[(E)-3-(3,4-dihydroxyphenyl)-2-propenoyl]amino}benzenesulfonamide] | 16 | –
19 | COc1ccc(/C(=C/C(=O)Nc2ccc(S(N)(=O)=O)cc2)c2cccnc2)cc1OC [Example 72] | 41 | –
20 | CN(C(=O)/C=C/c1ccc(O)c(F)c1)c1ccc(S(=O)(=O)NC2CCCCCCC2)cc1 [Example 87, N-cyclooctyl-4-{N-methyl-N-[(E)-3-(3-fluoro-4-hydroxyphenyl)-2-propenoyl]amino}benzenesulfonamide] | 2.1 | –
